Results as given in patent US20220195383A1, “METHOD FOR PRODUCING PLURIPOTENT STEM CELLS” (KANEKA CORPORATION, priority 2019, published 2022).

Columns and labels:
WNT3A protein [1] = assay: ELISA analysis of WNT3A protein in culture supernatant, suspension culture with IWP-2, line RPChiPS771-2; assay type: cell-based, human; details: IWP-2 2 μM, line RPChiPS771-2, day 5 (Example 2)
[2] = tested on: human iPS cell line RPChiPS771-2; assay: Quantitative real-time PCR of marker genes after suspension culture with IWP-2; assay type: cell-based; details: IWP-2 2 μM, line RPChiPS771-2, day 10 (Example 2)
[3] = tested on: human iPS cell line 201B7; assay: as above; assay type: cell-based; details: IWP-2 2 μM, line 201B7, day 10 (Example 1)
Protocol: Cells on day 10 of the culture were treated with Accutase for 3 to 10 minutes and dispersed into single cells by pipetting. These cells were lysed using TRIzol™ Reagent (Thermo Fisher Scientific K.K.). Total RNA was isolated and purified from a cell solution obtained by lysing with TRIzol™ Reagent using a PureLink (registered trademark) RNA Mini kit (Thermo Fisher Scientific K.K.). A concentration of the purified RNA was measured using BioSpec-nano (Shimadzu Corporation), and 40 ng was separated. 2 μL of ReverTra Ace (registered trademark) qPCR RT Master Mix (TOYOBO CO., LTD.) and RNase Free dH2O were added to the separated RNA to prepare 10 μL. cDNA synthesis was performed using SimpliAmp Thermal Cycler (Thermo Fisher Scientific K.K.). […] A synthesized cDNA solution was diluted 100-fold with 10 mM Tris-HCl pH 8.0 (NACALAI TESQUE, INC.) and added to a 384-well PCR plate (Thermo Fisher Scientific K.K.) at 5 μL/well. KOD SYBR® qPCR Mix (TOYOBO CO., LTD.), a Forward primer prepared to 50 μM, a Reverse primer prepared to 50 μM, and DEPC-treated water (NACALAI TESQUE, INC.) were mixed at a ratio of 100:1:1:48. This mixed solution was added to the above-mentioned 384-well PCR plate at 15 μL/well and mixed. For the primers, bACT, OCT4, SOX2, Nanog, Brachyury, and SOX17 were used. The 384-well PCR plate was subjected to centrifugal separation to remove air bubbles in the wells, and quantitative real-time PCR analysis was performed using QuantStudio 7 Flex Real-Time PCR System (Thermo Fisher Scientific K.K.).
Suspension culture was performed under a condition in which an amount of WNT protein contained in a unit of a medium in contact with a unit area of a cell surface was maintained at 2.9×10^2 μg/mL·cm^2 or less. Specifically, the human iPS cell line 201B7 maintenance-cultured by the method in Step 1 of Example 1 was treated with Accutase for 3 to 5 minutes to release the cells from the dish. The cells were dispersed into single cells by pipetting. These cells were suspended in a StemFit (registered trademark) AK02N medium containing Y-27632 at a final concentration of 10 μM. A part of the cells was stained with trypan blue to measure the number of living cells. A cell suspension was prepared so that it contained 2×10^5 cells per mL using the StemFit (registered trademark) AK02N medium containing Y-27632 a final concentration of 10 μM. 4 mL of the cell suspension per well was seeded in a 6-well plate for suspension culture (Sumitomo Bakelite Co., Ltd.). IWP-2 (FUJIFILM Wako Pure Chemical Corporation), which is a WNT protein secretion inhibitor, was added to the seeded wells so that a final concentration was 2 μM. The plate in which the cells were seeded was gyrated on a rotary shaker (Optima Instruments) at a speed of 83 rpm so that a gyrating width (diameter) drew a circle of 25 mm along a horizontal plane, and suspension culture was performed at 37° C. in a 5% CO2 environment. The day when the cells were seeded was defined as day 0 of the culture. Passage was performed on day 5 of the culture, and suspension culture was performed until day 10 of the culture. Medium exchange was performed as follows. A total amount of the medium containing cell aggregates was recovered in a centrifuge tube and left to stand for about 5 minutes to precipitate the cell aggregates. Thereafter, the culture supernatant was removed. […]

WNT3A protein [4] = assay: ELISA analysis of WNT3A protein in culture supernatant, suspension culture with IWP-2, line 201B7; assay type: cell-based, human; details: IWP-2 2 μM, line 201B7, day 5 (Example 1)
Protocol: A reagent and a reaction plate attached to a WNT3A ELISA kit (Aviva Systems Biology Corporation) were returned to room temperature. A vial of WNT3A Standard attached to the kit was subjected to centrifugal separation, and a powder in the vial was collected. After adding 1 mL of a diluent solution attached to the kit and mixing, the mixture was left to stand at room temperature for 15 minutes to prepare a WNT3A solution at a final concentration of 10 ng/mL. Based on the WNT3A solution at a final concentration of 10 ng/mL, the solution was diluted with the diluent solution attached to the kit to create WNT3A solution dilution series at final concentrations of 0.156 ng/mL, 0.313 ng/mL, 0.625 ng/mL, 1.25 ng/mL, 2.5 ng/mL, and 5 ng/mL. The dilution series of 0.156 ng/mL to 10 ng/mL and the culture supernatant on day 5 of the culture were added to the reaction plate at 100 μL/well, and a plate seal was attached. […]
Absorbance was measured at 450 nm (corrected wavelength 540 nm) using SpectraMax i3x Multi-Mode Detection Platform (Molecular Devices, LLC.), and a concentration of the WNT3A protein contained in the medium was calculated. Furthermore, an amount of the WNT3A protein of cells (pg/10^4 cells) was calculated from the results of measuring the number of living cells on day 5 of the culture according to the following equation. […]

Cc1ccc2nc(NC(=O)CSc3nc4c(c(=O)n3-c3ccccc3)SCC4)sc2c1 [IWP-2]
Concentration of WNT3A protein contained in medium (WNT3A protein [1]): 53.3 pg/mL
Relative gene expression level with respect to ACTB in 2 ^∧ Ct, Nanog [2]: 8.16 × 10^−1
Relative gene expression level with respect to ACTB in 2 ^∧ Ct, OCT4 [2]: 5.72 × 10^−1
Relative gene expression level with respect to ACTB in 2 ^∧ Ct, SOX2 [2]: 2.31 × 10^−2
Relative gene expression level with respect to ACTB in 2 ^∧ Ct, Brachyury ([2]; dash = not detected): not detected
Relative gene expression level with respect to ACTB in 2 ^∧ Ct, SOX17 ([2]; dash = not detected): not detected
Relative gene expression level with respect to ACTB in 2 ^∧ Ct, Nanog [3]: 1.30 × 10^−2
Relative gene expression level with respect to ACTB in 2 ^∧ Ct, OCT4 [3]: 1.77 × 10^−1
Relative gene expression level with respect to ACTB in 2 ^∧ Ct, SOX2 [3]: 2.83 × 10^−2
Relative gene expression level with respect to ACTB in 2 ^∧ Ct, Brachyury ([3]; dash = not detected): not detected
Relative gene expression level with respect to ACTB in 2 ^∧ Ct, SOX17 ([3]; dash = not detected): not detected
Amount of WNT3A protein contained in unit of medium in contact with unit area of cell surface, average value (n = 10) (WNT3A protein [4]): 2.7 × 10^2 μg/mL · cm^2
Concentration of WNT3A protein contained in medium (WNT3A protein [4]): 83.9 pg/mL
